Measured values from patent US20260217983A1, “SULFONIUM SALT PHOTOINITIATORS AND METHODS OF LED CURING A COMPOSITION WITH SAID SULFONIUM SALT PHOTOINITIATORS” (ARKEMA FRANCE, priority 2022, published 2026).

Key:
[1] = Molar extinction coefficient in acetonitrile; assay type: physicochemical
Method: The curing performance of individual products prepared above was assessed using real time FT-IR measurement. The photoinitiators were dissolved in cycloaliphatic epoxy resin UViCure S105 (available from Sartomer) at the indicated wt % loading, applied onto the FT-IR measurement plate and irradiated with the indicated LED light source. The polymerization rate and final reactive group conversion were determined by monitoring the change of the relevant infrared band near 900 cm^−1 corresponding to an epoxide ring during irradiation. The molar extinction coefficients for the photoinitiator products (ε, expressed in M^−1 cm^−1) were determined in acetonitrile at 10^-3 M or 10^-5 M concentration.

[2] = Real time FT-IR curing performance at 405 nm in neat TMPTA; details: 20 μm thickness, laminated; for Acrylate Polymerization rate Rp/[M0]*100: LED @405 nm (110 W/cm^2); for Acrylate Final conversion: LED @405 nm (110 mW/cm^2)
Method: The curing performance of individual products prepared above was assessed using real time FT-IR measurement. The photoinitiators were dissolved either in neat trimethylolpropane triacrylate (TMPTA; available as SR351 from Sartomer) or in a 1:1 (w/w) mixture of TMPTA and UViCure S105 as indicated, applied onto the FT-IR measurement plate, laminated to prevent oxygen inhibition, and irradiated with the indicated LED light source. For the epoxy component, the polymerization rate and final reactive group conversion were determined by monitoring the change of the relevant infrared band near 900 cm^−1 corresponding to an epoxide ring. For the acrylate component, the C═C stretch band near 1625 cm^−1 was used.

[3] = Belt curing performance (thumb-twist depth cure) in hybrid acrylate/epoxy resin; details: for Cure speed in hybrid acrylate/epoxy resin: 24 μm film, under air, PI 2 wt %
Method: The photoinitiators were dissolved either in neat UViCure S105E resin or a hybrid acrylate/epoxy resin (prepared by mixing 60 wt parts UViCure S105E, 15 wt parts UViCure S130 and 25 wt parts SR492; all product are available from Sartomer). Formulations were prepared by combining all materials in the given proportions and then stirring at 30-40° C. until the samples were fully homogeneous; the formulations were then allowed to cool to room temperature. For all experiments, the formulations were cured on Leneta Form 3N-31 gloss finish paper at 6 μm and 24 μm film thickness using a belt-cure instrument; the films were prepared using a K-bar. All films were then cured under an LED lamp at a given belt speed. ‘Depth cure’ for each formulation was assessed using the ‘thumb-twist’ test (where no visible mark is made when a thumb is pressed down firmly onto the coating with a twisting motion), and from the belt speed; the calculated cure speed (in m/min) is given.

[4] = Transmittance at 0.01% w/v in propylene carbonate; assay type: physicochemical
Method: The samples were prepared at 0.01% w/v in propylene carbonate.

[5] = FTIR-ATR cure test of cationic formulations (epoxide, oxetane conversion, 1100 cm^-1 peak growth); details: 405 nm, cationic systems
Method: Matrixes: In a 1000 mL of metal can, formulation matrix was charged according to the percentage in Table 12. The 1000-1005 g mixture of each matrix sample was prepared and mixed by mechanical mixer for about 1 hour around 60° C. until the solution became clear. Formulations: In a white max 50 jar from FlackTek Inc., photoinitiator and propylene carbonate were loaded at first, mixed by hand with stainless steel spatula, placed in 60° C. oven for about 1 h, mixed again until it became clear. Then, formulation matrix was charged according to the percentage in one of Table 13 to 21. The […]-52.60 g mixture of each sample was prepared and mixed for 3 minutes at 3000 RPM in Speed Mixer from FleackTec Inc. Then, all jars were placed in 60° C. oven for about 2 h, taken out and immediately mixed for another 2 minutes until the solution became clear.
A Fourier Transform Infrared (FTIR) with an Attenuated Total Reflection (ATR) setup was used. All polymerization rate measurements were performed using Nicolet iS50 FT-IR Spectrometer from Thermo Scientific, equipped with a standard DLaTGS detector. A lamp holder for the ART platform of FTIR unit can be customized and printed from Arkema N3xtDimention® engineered resin N3D-TOUGH784 in order to ensure precisely fit of a 365 nm lamp Accucure ULM-2-365 or a 405 nm lamp Accucure ULM-2-405 from Digital Light Labs. On the bottom of this lamp holder, a dry air channel is built in to allow air uniformly blowing over sample surface, the gas flow rate can be controlled over a rotameter. The LED light was manually triggered by Ultraviolet illumination & Measurement System. LED light exposure can be programed by AccuCure software. For measurement, 25 μL of liquid sample was placed in the center of an ATR crystal. 3 mil of thin film was prepared by a customized coating applicator (3 mil WFM, G1046 from BYK). The LED lamp with holder was place on the top of ART platform. Then FTIR scan was initiated to collect liquid IR spectrum at first. Each IR spectrum of a specific exposure time at 10 mW/cm^2 of LED light were collected. Measurements of acrylate conversion were taken at the peak height under the reference peak around 1727 cm^−1; the acrylate peak of SR833S at approximately 1407 cm^−1, the epoxide peak of UviCure S105 at approximately 790 cm^−1, and the oxetane peak of UViCure S130 at approximately 970 cm^−1 were also measured. Since the ring opening of both epoxide and oxetane generated C—O—C bond, the growth of C—O—C IR peak height at ~1100 cm^−1 was monitored as well. The resulting of peak 1100 cm^−1 growth rate could be calculated to assess total cationic cure speed. Peak heights were determined using the same baseline where a baseline is chosen to be the two lowest points between 600 cm^−1 and 1800 cm^−1. The peak height under the peak and above the baseline was then determined. The integration limits for liquid and the cured sample are not identical but are similar, especially for the reference peak.
The ratios of the acrylate peak height, epoxide peak height, ring opening peak height from both epoxide and oxetane to the reference peak height were determined for both the liquid and the cured samples. Degree of cure or conversion or peak growth rate, expressed as percentage reacted acrylate or epoxide or ring opening of both epoxide and oxetane, was calculated from the equation below: […]
Where Rliq is the peak height ratio of the liquid sample and Rc is the peak height ratio of the LED cured sample. The resulting acrylate and epoxide conversions or C—O—C growth rates were collected and listed in Tables 13 to 21, plotted in FIG. 1 to 8 and FIG. 10.

[6] = UV Vis spectra measurement; assay type: physicochemical; details: order 5>1>2 (comp.) ~4 (comp.); 10 ppm in acetonitrile
Text: UV-Vis spectrum of each sample was taken with a Shimadzu UV1800 spectrophotometer using a 1.0 cm path of cuvette quartz cell in accordance with ASTM E169-04, and scanning the spectrum over the wavelength range of 450 to 200 nm.

[7] = Thermal stability by DSC in TMPTA resin; assay type: physicochemical; details: DSC at 10° C./min, loading 1 wt %
Method: (§1) Formulations comprising the photoinitiators and neat UViCure S105E resin and/or TMPTA resin were prepared as described at example 2.

[8] = Thermal stability by DSC in TMPTA/UViCure S105E (1:1) hybrid resin; assay type: physicochemical; details: DSC at 10° C./min, loading 1 wt %
Method: as §1

[9] = LED 365 nm, 100% intensity (=70.1 mJ/cm^2), belt speed 40 m/min
[10] = LED 395 nm, 80 m/min, 50% intensity (=36.9 mJ/cm^2)

SMILES | ε at 365 nm [1] | ε at 385 nm [1] | Acrylate Polymerization rate Rp/[M0]*100 [2] | Acrylate Final conversion [2] | Cure speed in hybrid acrylate/epoxy resin [3, 9] | Cure speed in hybrid acrylate/epoxy resin [3, 10] | % Transmittance at 355 nm [4] | % Transmittance at 420 nm [4] | epoxide, oxetane and total cationic cure compared with Omnicat550 and SC992 [5] | UV absorption at 405 nm [6] | onset temperature of thermal polymerisation [7] | onset temperature of thermal polymerisation [8] | cationic cure compared with 2 (comp.) or 4 (comp.) [5] | belt cure speed compared with photoinitiator 1 ([3]; at 80 m/min in hybrid acrylate/epoxy resin at both 365 nm and 395 nm)
CCc1cc(CC)c2sc3ccc([S+](c4ccc(C)cc4)c4ccc(C(=O)c5ccccc5)cc4)cc3c(=O)c2c1 (stereo not shown) [Photoinitiator 4, (4-benzoylphenyl)(5,7-diethyl-9-oxo-9H-thioxanthen-2-yl)(4-methylphenyl)sulfonium Hexafluorophosphate] | 13154 M⁻¹ cm⁻¹ | 13649 M⁻¹ cm⁻¹ | 5.70 s⁻¹ | 64% | 17.8 m/min | 15.1 m/min | 6.8% | 83.3% | better epoxide cure, oxetane cure as well as total cationic cure than both Omnicat550 and SC992 | much higher than Omnicat 550 and SC 992S |  |  |  | 
CC(C)c1ccc2sc3ccc(-[s+]4c5ccccc5c(=O)c5cc(C(C)C)ccc54)cc3c(=O)c2c1 (stereo not shown) [Photoinitiator 1, 9-oxo-10-[9-oxo-7-(propan-2-yl)-9H-thioxanthen-2-yl]-2-(propan-2-yl)-9H-thioxanthen-10-ium hexafluorophosphate] | 23380 M⁻¹ cm⁻¹ | 23514 M⁻¹ cm⁻¹ | 3.43 s⁻¹ | 38% | 20.0 m/min | 40.0 m/min | 8.0% | 90.3% | better epoxide cure, oxetane cure as well as total cationic cure than both Omnicat550 and SC992 | much higher than Omnicat 550 and SC 992S | 150 °C | 133 °C | performed slightly better than 2 (comp.) or 4 (comp.) | 
CCCOc1ccc(Cl)c2c(=O)c3cc(-[s+]4c5ccccc5c(=O)c5c(Cl)ccc(OCCC)c54)ccc3sc12 (stereo not shown) [Photoinitiator 5, 1-chloro-10-(8-chloro-9-oxo-5-propoxy-9H-thioxanthen-2-yl)-9-oxo-4-propoxy-9H-thioxanthen-10-ium Hexafluorophosphate] | 37326 M⁻¹ cm⁻¹ | 23429 M⁻¹ cm⁻¹ | 2.01 s⁻¹ | 51% | 40.0 m/min | 80.0 m/min | 0.8% | 64.8% | better epoxide cure, oxetane cure as well as total cationic cure than both Omnicat550 and SC992 | much higher than Omnicat 550 and SC 992S | 165 °C | 120 °C | performed slightly better than 2 (comp.) or 4 (comp.) | superior cure speed
Cc1ccc([S+](c2ccc(C(=O)c3ccccc3)cc2)c2ccc3sc4ccc(C(C)C)cc4c(=O)c3c2)cc1 (stereo not shown) [Photoinitiator 2, (4-benzoylphenyl)(4-methylphenyl)[9-oxo-7-(propan-2-yl)-9H-thioxanthen-2-yl]sulfonium Hexafluorophosphate] | 14201 M⁻¹ cm⁻¹ | 14921 M⁻¹ cm⁻¹ | 4.58 s⁻¹ | 53% | 11.1 m/min | 16.4 m/min | 19.7% | 94.3% | better epoxide cure, oxetane cure as well as total cationic cure than both Omnicat550 and SC992 | much higher than Omnicat 550 and SC 992S | 170 °C | 117 °C |  | 
